What was measured:
TdT = test: Enzymatic DNA synthesis reactions (N+20 nucleotide additions with TdT, analysed by next-generation sequencing); type: biochemical
Description: Enzymatic N+20 nucleotide addition reactions were conducted on polymer-coated silica paramagnetic particles. Enzymatic DNA synthesis was performed on a ThermoFisher KingFisher sample purification system. Enzymatic DNA synthesis consists of cycles of addition solution (containing TdT, reversibly terminated nucleotide and a near-neutral extension solution comprising one or more buffers (e.g., Tris or cacodylate), one or more salts (e.g., Na^+, K^+, Mg^2+, Mn^2+, Cu^2+, Zn^2+, Co^2+, etc. all with appropriate counterions, such as Cl^−) and inorganic pyrophosphatase (e.g., the Saccharomyces cerevisiae homolog)), wash 1 solution (HEPES+5 mM EDTA at pH 8.00), deblock solution (sodium nitrite at pH 5.5), and wash 2 solution (HEPES at pH 7.20). The following sequences […] (Oligo A) and […] (Oligo B) were synthesized in triplicate. DNA products were analysed by next-generation sequencing on an Illumina MiniSeq. Data showing the percent perfect sequences are shown in the following plots for synthesis of these sequences with reversibly terminated dG and reversibly terminated 8-aza-dG; other nucleotides are reversibly terminated dA, dC or dT.

[1] = Stability tests of modified 2′-deoxyguanosines in NDS buffer vs. 2′-deoxyguanosine (nitrite-mediated deamination); type: physicochemical; details: for stability in NDS compared with 2′-deoxyguanosine: nitrite deprotection solution (sodium nitrite in 1M sodium acetate, pH 5.5), room temperature, over 4 days, HPLC or LC/MS
Description: Stability Tests of Modified 2′-Deoxyguanosines in NDS Buffer vs. 2′-Deoxyguanosine
Nitrite deprotection solution (NDS) was prepared from sodium nitrite (380 mg, 5.5 mmol) and 1M pH 5.5 sodium acetate (7.868 mL) and adjusted to pH 5.5 with 10M sodium hydroxide. Samples of nucleoside (˜0.5 mg) were dissolved in 1 mL aliquots of this buffer. The samples were analysed by HPLC or LC/MS using Method 1 or Method 2 immediately after making up the samples and at intervals over 4 days while stored at room temperature alongside reference samples of 2′-deoxyguanosine. 2′-Deoxyguanosine gave an approximately 8:1 mixture of 2′-deoxyxanthosine and Peak (3) with the same mass as 2′-deoxyxanthosine. 7-Deaza-2′-deoxyguanosine gave 7-deaza-2′-deoxyxanthosine as one component of a complex mixture of products. Other nucleosides gave products with masses corresponding to the products of substitution of NH2 with OH (increase of 1 Da) assigned to the 2′-deoxyxanthosine analogues. Data for 7-deaza-2′-deoxyguanosine (X=CH, Y=CH), 7-deaza-7-trifluoromethyl-2′-deoxyguanosine (X=CCF3, Y=CH), 7-deaza-7-cyano-2′-deoxyguanosine, 7-deaza-7-methanesulfonyl-2′-deoxyguanosine (X=CSO2Me, Y=CH) and 8-aza-2′-deoxyguanosine (X=N, Y=N) for experiments run in parallel with 2′-deoxyguanosine (X=CH, Y=N) are shown in the plots below.

Row | stability in NDS compared with 2′-deoxyguanosine [1] | Compound | other results
1 |  | 3′-(O)-Acetoxime-8-Aza-2′-Deoxyguanosine 5′-Triphosphate [reversibly terminated 8-aza-dG] | efficiency of additions of any nucleotide to 8-aza-dG terminated sequences compared with dG terminated sequences (TdT; TdT addition, Oligo A and Oligo B): less efficient; percent perfect sequences compared with products made with dG (TdT; synthesis of Oligo A and Oligo B in triplicate, Illumina MiniSeq): lower level of percent perfect sequences
2 | slightly more stable | CS(=O)(=O)c1cn(C2CC(O)C(CO)O2)c2nc(N)[nH]c(=O)c12 (stereo not shown) [7-(MethanesulfonyI)-7-Deaza-2′-Deoxyguanosine] | 
3 | much less stable | Nc1nc2c(ccn2[C@H]2C[C@H](O)[C@@H](CO)O2)c(=O)[nH]1 [7-Deaza-2′-deoxyguanosine, reference compound] | 
4 | slightly more stable | Nc1nc2c(c(C(F)(F)F)cn2[C@H]2C[C@H](O)[C@@H](CO)O2)c(=O)[nH]1 [7-Deaza-7-Trifluoromethyl-2′-Deoxyguanosine] | 
5 | slightly more stable | N#Cc1cn([C@H]2C[C@H](O)[C@@H](CO)O2)c2nc(N)[nH]c(=O)c12 [7-deaza-7-cyano-2′-deoxyguanosine, 7-Deaza-7-Cyano-2′-Deoxyguanosine] | 
6 |  | Nc1nc2c(nnn2[C@H]2C[C@H](O)[C@@H](CO)O2)c(=O)[nH]1 [8-Aza-2′-deoxyguanosine] | factor by which more stable in NDS than 2′-deoxyguanosine ([1]; nitrite deprotection solution pH 5.5, room temperature, run in parallel with 2′-deoxyguanosine): 4.2

Source: patent US20240150389A1, “MODIFIED GUANINES” (NUCLERA NUCLEICS LTD, priority 2021, published 2024)
